The data set can be described thus: Solubility analysis of allulose dimer crystals in water. It is filed as physicochemical. Particulars: water as solvent, solvent temperature 25°C.

Values after ≈ are worked out from the molar mass of the structure shown.

One may read the solubility as the dissolved amount per volume that the medium holds. `O=C(CO)[C@H](O)[C@H](O)[C@H](O)CO` [allulose] gave a solubility of 340 mg/mL (≈ 1890 mM).
